Reference: patent US12357603B2, “Acyl sulfonamides for treating cancer” (Bayer Aktiengesellschaft, priority 2019, dated 2025)

How the values were obtained:
[1] = biological target: Recombinant human His-tagged Kat6a protein (amino acids 194-810) (Homo sapiens (Human), UniProt Q92794); assay: Kat6a activity assay (TR-FRET, acetylation of biotinylated Histone-H4-derived peptide); assay type: biochemical; conditions: 60 mins at 22° C., read-out: KAT6A-DPF/HAT domain IC50 [mol/l] (arithmetic mean)
Procedure, shortened: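 Sf9-expressed human His-Kat6a (aa 194-810) incubated 60 min at 22 °C with compounds (0.01-20 μM) in Tris pH 8 buffer containing 220 nM biotinylated H4 peptide (aa 1-24) and 600 nM acetyl-CoA. Acetyl-K8 detected by TR-FRET (665/620 nm ratio); IC50 by four-parameter fit versus DMSO controls.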

[2] = biological target: Recombinant human GST-tagged Kat6b protein (431-end); assay: Kat6b activity assay (TR-FRET, acetylation of biotinylated Histone-H4-derived peptide); assay type: biochemical; conditions: 30 mins at 22° C., read-out: KAT6B activity assay IC50 [mol/l] (arithmetic mean)
Method: Kat6b inhibitory activities of the compounds described in the present invention were quantified using a Fluorescence Resonance Energy Transfer (TR-FRET) assay which measures acetylation of a synthetic, biotinylated Histone-H4-derived peptide by the enzyme.
In this case 50 nl DMSO were used instead of compounds. […] IC50 values were determined by regression analysis based on a 4 parameter equation (minimum, maximum, ICM, Hill; Y=Max+(Min−Max)/(1+(X/ICso) Hill) using the Screener Software (Genedata).

[3] = tested on: ESR1 transcription (luciferase signal in MVLN cells); assay: Repression of ESR1 transcription, luciferase reporter in MVLN cells; assay type: cell-based; conditions: Homo sapiens, MVLN, inhibition of luciferase signal in MVLN cells; arithmetic mean
Procedure, shortened: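 MVLN cells (constitutive ER, stably carrying a Vitellogenin A2 hormone-responsive element–luciferase reporter) treated in duplicate; luciferase read after 24 h. Cell density checked by Alamar Blue fluorescence (530/590 nm) after 2 h to exclude cell-loss effects.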

[4] = tested on: ZR-75-1 cells; assay: Proliferation assay ZR-75-1 (Alamar Blue, 144 h); assay type: cell-based; conditions: Homo sapiens, ZR-75-1, 144 h, arithmetic mean, read-out: ZR75-1 proliferation assay, EC50 [M] (arithmetic mean)
Procedure, shortened: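 Cells seeded at 3000/well in RPMI 1640 with 2.5% FBS and treated 24 h later across 2.0×10E-5 to 2.0×10E-9 M (9 dilutions, 0.2% DMSO, triplicate). After 144 h at 37 °C, 5% CO2, viability read by Alamar Blue fluorescence at 590 nm following 2 h reagent incubation.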

[5] = tested on: MDA-MB-436 cells; assay: Proliferation assay MDA-MB-436, negative control cell line (Alamar Blue, 144 h); assay type: cell-based; conditions: Homo sapiens, MDA-MB-436, 144 h, arithmetic mean
Procedure, shortened: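 MDA-MB-436 cells (3000/well, DMEM/Ham's F12 with 2.5% FBS) treated 24 h after plating with compounds at 2.0×10E-5 to 2.0×10E-9 M (9 dilutions, 0.2% DMSO), triplicates, 144 h at 37 °C, 5% CO2. Viability by Alamar Blue, 2 h, fluorescence at 590 nm.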

Chain of Recombinant human His-tagged Kat6a protein (amino acids 194-810) (Q92794 194-810): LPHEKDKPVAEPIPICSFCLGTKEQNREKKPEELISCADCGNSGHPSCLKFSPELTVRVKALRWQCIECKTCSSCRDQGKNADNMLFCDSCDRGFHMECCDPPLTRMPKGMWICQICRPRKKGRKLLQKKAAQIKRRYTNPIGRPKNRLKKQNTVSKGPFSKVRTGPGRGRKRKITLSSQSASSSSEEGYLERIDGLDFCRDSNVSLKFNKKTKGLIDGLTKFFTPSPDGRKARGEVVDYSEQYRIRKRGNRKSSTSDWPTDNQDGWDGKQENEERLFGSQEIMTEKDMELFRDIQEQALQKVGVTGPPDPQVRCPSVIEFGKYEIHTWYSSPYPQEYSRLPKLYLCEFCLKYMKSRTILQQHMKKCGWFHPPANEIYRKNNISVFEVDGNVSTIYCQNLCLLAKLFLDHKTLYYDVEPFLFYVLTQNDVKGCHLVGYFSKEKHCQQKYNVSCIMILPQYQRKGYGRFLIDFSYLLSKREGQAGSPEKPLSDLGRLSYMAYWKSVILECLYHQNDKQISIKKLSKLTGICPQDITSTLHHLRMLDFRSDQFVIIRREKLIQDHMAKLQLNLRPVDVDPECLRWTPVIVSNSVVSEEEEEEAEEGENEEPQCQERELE

Compound | IC50 [1] [µM] | IC50 [2] [µM] | IC50 [3] [µM] | EC50 [5] [µM] | EC50 [4] [M]
CN(C)c1ccc2cc(C(=O)NS(=O)(=O)c3ccccc3OCC3CC3)oc2c1 [Example 71, N-[2-(Cyclopropylmethoxy)benzene-1-sulfonyl]-6-(dimethylamino)-1-benzofuran-2-carboxamide] | 0.0724 | 0.131 | 0.0719 | > 20 | 1.92e-07
CN(C)c1ccc2cc(C(=O)NS(=O)(=O)c3ccccc3OCC(F)F)oc2c1 [Example 75, N-[2-(2,2-Difluoroethoxy)benzene-1-sulfonyl]-6-(dimethylamino)-1-benzofuran-2-carboxamide] | 0.163 | 0.246 | 0.13 | > 20 | 1.65e-07
CC(C)c1ccccc1S(=O)(=O)NC(=O)c1cc2ccc(N(C)C)cc2o1 [Example 77, 6-(Dimethylamino)-N-[2-(propan-2-yl)benzene-1-sulfonyl]-1-benzofuran-2-carboxamide] | 0.272 | 0.546 | 0.152 | > 20 | 1.48e-06
CCOc1ncccc1S(=O)(=O)NC(=O)c1cc2ccc(N(C)C)cc2o1 [Example 81, 6-(Dimethylamino)-N-(2-ethoxypyridine-3-sulfonyl)-1-benzofuran-2-carboxamide] | 0.32 | 0.377 | 0.188 | > 20 | 4.06e-07
CN(C)c1ccc2cc(C(=O)NS(=O)(=O)c3ccccc3OC3COC3)oc2c1 [Example 82, 6-(Dimethylamino)-N-{2-[(oxetan-3-yl)oxy]benzene-1-sulfonyl}-1-benzofuran-2-carboxamide] | 0.237 | 0.265 | 0.201 | > 20 | 2e-07
CN(C)c1ccc2cc(C(=O)NS(=O)(=O)c3ccccc3Oc3ccccc3)oc2c1 [Example 85, 6-(Dimethylamino)-N-(2-phenoxybenzene-1-sulfonyl)-1-benzofuran-2-carboxamide] | 0.115 | 0.186 | 0.232 | > 20 | 4e-07
Cc1cnc2c(S(=O)(=O)NC(=O)c3cc4ccc(N(C)C)cc4o3)cccc2c1 [Example 87, 6-(Dimethylamino)-N-(3-methylquinoline-8-sulfonyl)-1-benzofuran-2-carboxamide] | 0.0973 | 0.104 | 0.249 | > 20 | 4.18e-07
CCOc1ccc([N+](=O)[O-])cc1S(=O)(=O)NC(=O)c1cc2ccc(N(C)C)cc2o1 [Example 88, 6-(Dimethylamino)-N-(2-ethoxy-5-nitrobenzene-1-sulfonyl)-1-benzofuran-2-carboxamide] | 0.105 | 0.205 | 0.256 | 4.65 | 3.2e-07
CCCCCOc1ccccc1S(=O)(=O)NC(=O)c1cc2ccc(N(C)C)cc2o1 [Example 90, 6-(Dimethylamino)-N-[2-(pentyloxy)benzene-1-sulfonyl]-1-benzofuran-2-carboxamide] | 0.194 | 0.357 | 0.312 | > 20 | 8.08e-07
Cc1ccnc2c(S(=O)(=O)NC(=O)c3cc4ccc(N(C)C)cc4o3)cccc12 [Example 91, 6-(Dimethylamino)-N-(4-methylquinoline-8-sulfonyl)-1-benzofuran-2-carboxamide] | 0.0742 | 0.0922 | 0.365 | > 20 | 7.79e-07
CC(C)Cc1ccc2cccc(S(=O)(=O)NC(=O)c3cc4ccc(N(C)C)cc4o3)c2n1 [Example 93, 6-(Dimethylamino)-N-[2-(2-methylpropyl)quinoline-8-sulfonyl]-1-benzofuran-2-carboxamide] | 0.1 | 0.173 | 0.457 | > 20 | 8.56e-07
CCOc1cccnc1S(=O)(=O)NC(=O)c1cc2ccc(N(C)C)cc2o1 [Example 101, 6-(Dimethylamino)-N-(3-ethoxypyridine-2-sulfonyl)-1-benzofuran-2-carboxamide] | 0.502 | 0.61 | 1.44 | > 20 | 1.4e-06

Second part, led by results:

IC50 [1] [µM] | IC50 [2] [µM] | IC50 [3] [µM] | EC50 [5] [µM] | Compound | EC50 [4] [M]
0.122 | 0.109 | 0.0713 | > 20 | COc1ccc2cccnc2c1S(=O)(=O)NC(=O)c1cc2ccc(N(C)C)cc2o1 [Example 70, 6-(Dimethylamino)-N-(7-methoxyquinoline-8-sulfonyl)-1-benzofuran-2-carboxamide] | 1.63e-07
0.0967 | 0.19 | 0.0765 | > 20 | CN(C)c1ccc2cc(C(=O)NS(=O)(=O)c3ccccc3OCCF)oc2c1 [Example 72, 6-(Dimethylamino)-N-[2-(2-fluoroethoxy)benzene-1-sulfonyl]-1-benzofuran-2-carboxamide] | 1.31e-07
0.117 | 0.0785 | 0.0994 | > 20 | CN(C)c1ccc2cc(C(=O)NS(=O)(=O)c3cccc4cccnc34)oc2c1 [Example 73, 6-(Dimethylamino)-N-(quinoline-8-sulfonyl)-1-benzofuran-2-carboxamide] | 2.48e-07
0.128 | 0.228 | 0.117 | > 20 | CN(C)c1ccc2cc(C(=O)NS(=O)(=O)c3ccccc3OCC(F)(F)F)oc2c1 [Example 74, 6-(Dimethylamino)-N-[2-(2,2,2-trifluoroethoxy)benzene-1-sulfonyl]-1-benzofuran-2-carboxamide] | 1.65e-07
0.0887 | 0.19 | 0.146 | > 20 | CC(C)COc1ccccc1S(=O)(=O)NC(=O)c1cc2ccc(N(C)C)cc2o1 [Example 76, 6-(Dimethylamino)-N-[2-(2-methylpropoxy)benzene-1-sulfonyl]-1-benzofuran-2-carboxamide] | 1.95e-07
0.0327 | 0.087 | 0.153 | > 20 | CCOc1ccc(I)cc1S(=O)(=O)NC(=O)c1cc2ccc(N(C)C)cc2o1 [Example 78, 6-(Dimethylamino)-N-(2-ethoxy-5-iodobenzene-1-sulfonyl)-1-benzofuran-2-carboxamide] | 2.79e-06
0.188 | 0.2 | 0.164 | > 20 | CN(C)c1ccc2cc(C(=O)NS(=O)(=O)c3ccccc3OC(F)F)oc2c1 [Example 79, N-[2-(Difluoromethoxy)benzene-1-sulfonyl]-6-(dimethylamino)-1-benzofuran-2-carboxamide] | 2.22e-07
0.0738 | 0.0688 | 0.172 | > 20 | CCOc1cccc(-c2ccccc2)c1S(=O)(=O)NC(=O)c1cc2ccc(N(C)C)cc2o1 [Example 80, 6-(Dimethylamino)-N-(3-ethoxy[1,1′-biphenyl]-2-sulfonyl)-1-benzofuran-2-carboxamide] | 3.29e-07
0.0649 | 0.08 | 0.235 | > 20 | COc1ccc(Cn2cccn2)cc1S(=O)(=O)NC(=O)c1cc2ccc(N(C)C)cc2o1 [Example 86, 6-(Dimethylamino)-N-{2-methoxy-5-[(1H-pyrazol-1-yl)methyl]benzene-1-sulfonyl}-1-benzofuran-2-carboxamide] | 1.57e-07
0.131 | 0.172 | 0.279 | > 20 | CC(C)Oc1cccc(Cl)c1S(=O)(=O)NC(=O)c1cc2ccc(N(C)C)cc2o1 [Example 89, N-{2-chloro-6-[(propan-2-yl)oxy]benzene-1-sulfonyl}-6-(dimethylamino)-1-benzofuran-2-carboxamide] | 4.45e-07
0.00748 | 0.00382 | 0.0124 | > 20 | CN(C)c1cc(F)c2cc(C(=O)NS(=O)(=O)c3ccccc3OC3CC3)oc2c1 [Example 110, N-[2-(Cyclopropyloxy)benzene-1-sulfonyl]-6-(dimethylamino)-4-fluoro-1-benzofuran-2-carboxamide] | 7.12e-08
